Reference: ChEMBL document CHEMBL3885861, “Open TG-GATES”

Organism: Rattus norvegicus
Assay: Open TG-GATES - Regimen: Daily Repeat
Assay type: toxicity, organism-based, Sprague-Dawley
Design: regimen Daily Repeat, gender Male, age 6 weeks
Settings: in vivo, po, route gavage; for APTT / Bas / Eos / Fbg / Hb / Ht / Lym / MCH / MCHC / MCV / Mono / Neu / PT / Plat / RBC / Ret / WBC: tissue Blood; for KIDNEY_L / KIDNEY_R / KIDNEY_TOTAL: tissue Kidney; for LIVER: tissue Liver; for A/G / ALP / ALT / AST / BUN / CRE / Ca / Cl / DBIL / GLC / IP / K / LDH / Na / PL / RALB / TBIL / TC / TG / TP / gamma-GTP: tissue Plasma
[1] = 0 mg/kg, 72 h, dose level Control, time 3 day
[2] = 0 mg/kg, […], dose level Control, time 7 day
[3] = 0 mg/kg, […], dose level Control, time 14 day
[4] = 0 mg/kg, […], dose level Control, time 28 day
[5] = 50 mg/kg, 72 h, dose level Low, time 3 day
[6] = 50 mg/kg, […], dose level Low, time 7 day
[7] = 50 mg/kg, […], dose level Low, time 14 day
[8] = 50 mg/kg, […], dose level Low, time 28 day

CN1C(=O)OC(C)(C)C1=O [TRIMETHADIONE]
TERMINAL_BW [1]: 243.9 g
APTT [1]: 17 s
Bas [1]: 0%
Eos [1]: 0.8%
Fbg [1]: 265 mg/dL
Hb [1]: 13.7 g/dL
Ht [1]: 41%
Lym [1]: 79.8%
MCH [1]: 21.4 pg
MCHC [1]: 33.4%
MCV [1]: 64.2 fL
Mono [1]: 2.6%
Neu [1]: 16.4%
PT [1]: 13.3 s
Plat [1]: 131 x10_4/uL
RBC [1]: 639.2 x10_4/ul
Ret [1]: 7.2%
WBC [1]: 85.5 x10_2/uL
KIDNEY_L [1]: 1 g
KIDNEY_R [1]: 1 g
KIDNEY_TOTAL [1]: 2 g
LIVER [1]: 11.2 g
A/G [1]: 0.8
ALP [1]: 1967.6 IU/L
ALT [1]: 47.4 IU/L
AST [1]: 78 IU/L
BUN [1]: 15 mg/dL
CRE [1]: 0.2 mg/dL
Ca [1]: 11.2 mg/dL
Cl [1]: 106 meq/L
DBIL [1]: 0.006 mg/dL
GLC [1]: 180.6 mg/dL
IP [1]: 7 mg/dL
K [1]: 4.6 meq/L
LDH [1]: 109.4 IU/L
Na [1]: 141.6 meq/L
PL [1]: 166.6 mg/dL
RALB [1]: 2.6 g/dL
TBIL [1]: 0.05 mg/dL
TC [1]: 83.6 mg/dL
TG [1]: 141.8 mg/dL
TP [1]: 5.7 g/dL
gamma-GTP [1]: 1 IU/L
TERMINAL_BW [2]: 282.3 g
TERMINAL_BW [3]: 333.6 g
TERMINAL_BW [4]: 429.2 g
APTT [2]: 17.7 s
Bas [2]: 0.6%
Eos [2]: 1%
Fbg [2]: 263.8 mg/dL
Hb [2]: 13.8 g/dL
Ht [2]: 41%
Lym [2]: 79.4%
MCH [2]: 21.4 pg
MCHC [2]: 33.6%
MCV [2]: 63.9 fL
Mono [2]: 2.4%
Neu [2]: 16.4%
PT [2]: 13.9 s
Plat [2]: 123.3 x10_4/uL
RBC [2]: 641.8 x10_4/ul
Ret [2]: 5.8%
WBC [2]: 89.3 x10_2/uL
APTT [3]: 19.5 s
Bas [3]: 0.4%
Eos [3]: 1.2%
Fbg [3]: 284.6 mg/dL
Hb [3]: 14.9 g/dL
Ht [3]: 43.9%
Lym [3]: 77.8%
MCH [3]: 20.8 pg
MCHC [3]: 33.9%
MCV [3]: 61.2 fL
Mono [3]: 2%
Neu [3]: 18.6%
PT [3]: 13.4 s
Plat [3]: 127.4 x10_4/uL
RBC [3]: 719 x10_4/ul
Ret [3]: 4.4%
WBC [3]: 99.3 x10_2/uL
APTT [4]: 17.5 s
Bas [4]: 0%
Eos [4]: 1.2%
Fbg [4]: 265.2 mg/dL
Hb [4]: 15.4 g/dL
Ht [4]: 44.4%
Lym [4]: 78.4%
MCH [4]: 19.8 pg
MCHC [4]: 34.8%
MCV [4]: 57.1 fL
Mono [4]: 1.6%
Neu [4]: 18.2%
PT [4]: 13.7 s
Plat [4]: 109.9 x10_4/uL
RBC [4]: 778.2 x10_4/ul
Ret [4]: 2.6%
WBC [4]: 114 x10_2/uL
KIDNEY_L [2]: 1.1 g
KIDNEY_R [2]: 1.1 g
KIDNEY_TOTAL [2]: 2.3 g
KIDNEY_L [3]: 1.2 g
KIDNEY_R [3]: 1.2 g
KIDNEY_TOTAL [3]: 2.4 g
KIDNEY_L [4]: 1.5 g
KIDNEY_R [4]: 1.5 g
KIDNEY_TOTAL [4]: 2.9 g
LIVER [2]: 12.5 g
LIVER [3]: 14.3 g
LIVER [4]: 16.8 g
A/G [2]: 0.8
ALP [2]: 1722.8 IU/L
ALT [2]: 38.2 IU/L
AST [2]: 67.4 IU/L
BUN [2]: 16.8 mg/dL
CRE [2]: 0.2 mg/dL
Ca [2]: 11 mg/dL
Cl [2]: 105.2 meq/L
DBIL [2]: 0.01 mg/dL
GLC [2]: 191.8 mg/dL
IP [2]: 6.9 mg/dL
K [2]: 4.1 meq/L
LDH [2]: 107.8 IU/L
Na [2]: 144 meq/L
PL [2]: 165.4 mg/dL
RALB [2]: 2.6 g/dL
TBIL [2]: 0.052 mg/dL
TC [2]: 85.6 mg/dL
TG [2]: 109 mg/dL
TP [2]: 5.8 g/dL
gamma-GTP [2]: 1 IU/L
A/G [3]: 0.8
ALP [3]: 1703.8 IU/L
ALT [3]: 42 IU/L
AST [3]: 73.8 IU/L
BUN [3]: 17.2 mg/dL
CRE [3]: 0.2 mg/dL
Ca [3]: 10.8 mg/dL
Cl [3]: 107.2 meq/L
DBIL [3]: 0.004 mg/dL
GLC [3]: 208.2 mg/dL
IP [3]: 6.8 mg/dL
K [3]: 3.9 meq/L
LDH [3]: 98.8 IU/L
Na [3]: 145.6 meq/L
PL [3]: 164.6 mg/dL
RALB [3]: 2.7 g/dL
TBIL [3]: 0.042 mg/dL
TC [3]: 80.8 mg/dL
TG [3]: 128.8 mg/dL
TP [3]: 6 g/dL
gamma-GTP [3]: 1 IU/L
A/G [4]: 0.8
ALP [4]: 1156.4 IU/L
ALT [4]: 35 IU/L
AST [4]: 62.6 IU/L
BUN [4]: 15 mg/dL
CRE [4]: 0.2 mg/dL
Ca [4]: 10.8 mg/dL
Cl [4]: 105.6 meq/L
DBIL [4]: 0.004 mg/dL
GLC [4]: 183.8 mg/dL
IP [4]: 6 mg/dL
K [4]: 4 meq/L
LDH [4]: 64.2 IU/L
Na [4]: 142.6 meq/L
PL [4]: 159.8 mg/dL
RALB [4]: 2.8 g/dL
TBIL [4]: 0.048 mg/dL
TC [4]: 73.6 mg/dL
TG [4]: 188.4 mg/dL
TP [4]: 6.3 g/dL
gamma-GTP [4]: 1 IU/L
TERMINAL_BW [5]: 239.4 g
APTT [5]: 17.8 s
Bas [5]: 0%
Eos [5]: 1%
Fbg [5]: 290.4 mg/dL
Hb [5]: 13.8 g/dL
Ht [5]: 41%
Lym [5]: 74.8%
MCH [5]: 21.2 pg
MCHC [5]: 33.6%
MCV [5]: 63.2 fL
Mono [5]: 3%
Neu [5]: 20.8%
PT [5]: 13 s
Plat [5]: 127.3 x10_4/uL
RBC [5]: 649 x10_4/ul
Ret [5]: 6.9%
WBC [5]: 101.6 x10_2/uL
KIDNEY_L [5]: 1 g
KIDNEY_R [5]: 1 g
KIDNEY_TOTAL [5]: 2 g
LIVER [5]: 11.2 g
A/G [5]: 0.9
ALP [5]: 1701.8 IU/L
ALT [5]: 40.4 IU/L
AST [5]: 73.8 IU/L
BUN [5]: 15.2 mg/dL
CRE [5]: 0.2 mg/dL
Ca [5]: 11.1 mg/dL
Cl [5]: 106.4 meq/L
DBIL [5]: 0.008 mg/dL
GLC [5]: 178.4 mg/dL
IP [5]: 6.8 mg/dL
K [5]: 4.7 meq/L
LDH [5]: 87.2 IU/L
Na [5]: 141.6 meq/L
PL [5]: 166 mg/dL
RALB [5]: 2.6 g/dL
TBIL [5]: 0.05 mg/dL
TC [5]: 83 mg/dL
TG [5]: 123.8 mg/dL
TP [5]: 5.7 g/dL
gamma-GTP [5]: 1 IU/L
TERMINAL_BW [6]: 283.2 g
TERMINAL_BW [7]: 331.1 g
TERMINAL_BW [8]: 426.4 g
APTT [6]: 18.9 s
Bas [6]: 0%
Eos [6]: 1.2%
Fbg [6]: 255.8 mg/dL
Hb [6]: 13.9 g/dL
Ht [6]: 41.1%
Lym [6]: 74.6%
MCH [6]: 21.1 pg
MCHC [6]: 33.9%
MCV [6]: 62.2 fL
Mono [6]: 2.2%
Neu [6]: 21.8%
PT [6]: 13.7 s
Plat [6]: 137 x10_4/uL
RBC [6]: 660.4 x10_4/ul
Ret [6]: 5.5%
WBC [6]: 92.6 x10_2/uL
APTT [7]: 21.8 s
Bas [7]: 0.2%
Eos [7]: 1%
Fbg [7]: 271.2 mg/dL
Hb [7]: 14.9 g/dL
Ht [7]: 43.7%
Lym [7]: 76%
MCH [7]: 20.9 pg
MCHC [7]: 34.2%
MCV [7]: 61.3 fL
Mono [7]: 2.2%
Neu [7]: 20.6%
PT [7]: 13.4 s
Plat [7]: 118 x10_4/uL
RBC [7]: 712.8 x10_4/ul
Ret [7]: 4.1%
WBC [7]: 104.6 x10_2/uL
APTT [8]: 19.5 s
Bas [8]: 0.4%
Eos [8]: 1.4%
Fbg [8]: 257.6 mg/dL
Hb [8]: 15.7 g/dL
Ht [8]: 45.3%
Lym [8]: 80.2%
MCH [8]: 19.8 pg
MCHC [8]: 34.6%
MCV [8]: 57.3 fL
Mono [8]: 2%
Neu [8]: 15.4%
PT [8]: 13.9 s
Plat [8]: 108.7 x10_4/uL
RBC [8]: 789.4 x10_4/ul
Ret [8]: 2.4%
WBC [8]: 118.6 x10_2/uL
KIDNEY_L [6]: 1.2 g
KIDNEY_R [6]: 1.2 g
KIDNEY_TOTAL [6]: 2.4 g
KIDNEY_L [7]: 1.3 g
KIDNEY_R [7]: 1.3 g
KIDNEY_TOTAL [7]: 2.6 g
KIDNEY_L [8]: 1.5 g
KIDNEY_R [8]: 1.5 g
KIDNEY_TOTAL [8]: 3 g
LIVER [6]: 13.1 g
LIVER [7]: 13.8 g
LIVER [8]: 16.2 g
A/G [6]: 0.8
ALP [6]: 1932.2 IU/L
ALT [6]: 44.4 IU/L
AST [6]: 76.8 IU/L
BUN [6]: 16.6 mg/dL
CRE [6]: 0.2 mg/dL
Ca [6]: 10.9 mg/dL
Cl [6]: 105.4 meq/L
DBIL [6]: 0.006 mg/dL
GLC [6]: 187.8 mg/dL
IP [6]: 7 mg/dL
K [6]: 4.2 meq/L
LDH [6]: 79.6 IU/L
Na [6]: 143 meq/L
PL [6]: 158 mg/dL
RALB [6]: 2.6 g/dL
TBIL [6]: 0.046 mg/dL
TC [6]: 75 mg/dL
TG [6]: 113.6 mg/dL
TP [6]: 5.8 g/dL
gamma-GTP [6]: 1.2 IU/L
A/G [7]: 0.8
ALP [7]: 1421.4 IU/L
ALT [7]: 40.4 IU/L
AST [7]: 71.2 IU/L
BUN [7]: 16.2 mg/dL
CRE [7]: 0.2 mg/dL
Ca [7]: 10.7 mg/dL
Cl [7]: 105.2 meq/L
DBIL [7]: 0.002 mg/dL
GLC [7]: 182.6 mg/dL
IP [7]: 6.9 mg/dL
K [7]: 4.3 meq/L
LDH [7]: 131.4 IU/L
Na [7]: 144.4 meq/L
PL [7]: 159 mg/dL
RALB [7]: 2.7 g/dL
TBIL [7]: 0.04 mg/dL
TC [7]: 72.4 mg/dL
TG [7]: 112.8 mg/dL
TP [7]: 6 g/dL
gamma-GTP [7]: 1 IU/L
A/G [8]: 0.8
ALP [8]: 1126.4 IU/L
ALT [8]: 33.8 IU/L
AST [8]: 63.8 IU/L
BUN [8]: 16.6 mg/dL
CRE [8]: 0.3 mg/dL
Ca [8]: 10.7 mg/dL
Cl [8]: 104 meq/L
DBIL [8]: 0.006 mg/dL
GLC [8]: 180.2 mg/dL
IP [8]: 5.3 mg/dL
K [8]: 4.3 meq/L
LDH [8]: 69.8 IU/L
Na [8]: 142 meq/L
PL [8]: 162 mg/dL
RALB [8]: 2.8 g/dL
TBIL [8]: 0.042 mg/dL
TC [8]: 73.6 mg/dL
TG [8]: 186.6 mg/dL
TP [8]: 6.2 g/dL
gamma-GTP [8]: 1.2 IU/L
